The values below come from ChEMBL document CHEMBL4433256, “Homoharringtonine stabilizes secondary structure of guanine-rich sequence existing in the 5'-untranslated region of Nrf2” (Bioorg Med Chem Lett, 2019).

The nature of data set [1]: Stabilization of ssGQPLEX-delta3,4 DNA lacking third and fourth G blocks (unknown origin) by circular dichroism method. (CD spectra are sensitive to the conformation of chiral molecules.)
Data set [2] concerns A549. Description: Inhibition of Nrf2 5'-untranslated region guanine-rich DNA sequence in human A549 cells assessed as potentiation of etoposide-induced cytotoxicity by measuring increase in ROS production at 10 nM after 24 hrs by DCFH-DA based assay. In kind it is cell-based.
In data set [3] the test system is A549. Description: Inhibition of Nuclear factor erythroid 2-related factor 2 5'-untranslated region guanine-rich DNA sequence in human A549 cells assessed as reduction in Nrf2 protein level at 10 nM incubated for 12 to […] hrs by Western blot analysis. It is filed as cell-based.
Data set [4] deals with A549. The data set is described as follows: Inhibition of Nuclear factor erythroid 2-related factor 2 5'-untranslated region guanine-rich DNA sequence in human A549 cells assessed as suppression of GCLC gene expression at 10 nM measured up to 48 hrs by RT-PCR analysis. It is filed as cell-based.
The subject of data set [5] is A549. The data set is described as follows: Inhibition of Nrf2 5'-untranslated region guanine-rich DNA sequence in human A549 cells assessed as potentiation of etoposide-induced apoptosis by measuring increase cleaved PARP protein level in at 10 nM after 24 hrs by Western blot analysis. In kind it is cell-based. Background: Immunoblotting shows a protein as a band on a membrane.

In data set [6] the test system is A549. Description: Inhibition of Nrf2 5'-untranslated region guanine-rich DNA sequence in human A549 cells assessed as potentiation of etoposide-induced cytotoxicity by measuring increase in apoptosis at 10 nM after 24 hrs by TUNEL assay. In kind it is cell-based.
Data set [7] is described as follows: Stabilization of dsGQPLEX DNA (unknown origin) by circular dichroism method.
Data set [8] deals with A549. The data set is described as follows: Inhibition of Nuclear factor erythroid 2-related factor 2 5'-untranslated region guanine-rich DNA sequence in human A549 cells assessed as suppression of AKR1B10 gene expression at 10 nM measured up to 48 hrs by RT-PCR analysis. It is filed as cell-based.
Data set [9] deals with A549. The data set is described as follows: Cytotoxicity against human A549 cells at 1 nM to 10 uM after 24 hrs by MTT assay. Conditions: a549, 24 h, 0.001 µM. It is filed as cell-based. In general terms: Tetrazolium assays rely on reduction of a dye to a coloured formazan, in cell work by metabolically active cells.
Data set [10] in a line: Stabilization of ssGQPLEX-G/T-1,3 DNA (unknown origin) by circular dichroism method.
Data set [11] can be described thus: Stabilization of ssGQPLEX-G/T-1,2,3,4 DNA by circular dichroism method.
The subject of data set [12] is A549. Description: Inhibition of Nrf2 5'-untranslated region guanine-rich DNA sequence in human A549 cells assessed as potentiation of etoposide-induced cytotoxicity by measuring decrease in cell viability at 10 nM after 24 hrs by MTT assay. In kind it is cell-based.
A short description of data set [13]: Stabilization of ssGQPLEX DNA (unknown origin) assessed as increase in the peak of 264 nm wavelength by circular dichroism method.
The test system of data set [14] is A549. Description: Inhibition of Nuclear factor erythroid 2-related factor 2 5'-untranslated region guanine-rich DNA sequence in human A549 cells assessed as reduction in NRF2 mRNA levels at 10 nM after 12 to 36 hrs by RT-PCR analysis. In kind it is cell-based.
Data set [15] concerns A549. Description: Inhibition of Nrf2 5'-untranslated region guanine-rich DNA sequence in human A549 cells assessed as potentiation of etoposide-induced apoptosis by measuring increase cleaved caspase-3 protein level in at 10 nM after 24 hrs by Western blot analysis. In kind it is cell-based.
A short description of data set [16]: Stabilization of ssGQPLEX-G/T-2,4 DNA (unknown origin) by circular dichroism method.
Data set [17] in a line: Binding affinity to ssGQPLEX DNA (unknown origin) assessed as dissociation constant by isothermal titration calorimetric method.
Data set [18] in a line: Stabilization of ssGQPLEX-delta1,2 DNA lacking first and second G blocks (unknown origin) by circular dichroism method.
The subject of data set [19] is A549. The data set is described as follows: Inhibition of Nuclear factor erythroid 2-related factor 2 5'-untranslated region guanine-rich DNA sequence in human A549 cells assessed as suppression of AKR1C3 gene expression at 10 nM measured up to 48 hrs by RT-PCR analysis. It is filed as cell-based.

Active and inactive are the calls of the source. The rule behind the calls is not given here.

With `COC(=O)C[C@](O)(CCCC(C)(C)O)C(=O)O[C@@H]1C(OC)=C[C@]23CCCN2CCc2cc4c(cc2[C@H]13)OCO4` [OMACETAXINE MEPESUCCINATE], the outcome in data set [1], in data set [7], in data set [10], in data set [11], in [16] and in [18] was inactive. Further, the inhibition entry in the data set on A549 [2], in the data set on A549 [3], in the data set with A549 [4], with A549 [5], in the data set with A549 [6] and in the data set with A549 [8] was “Active” each time. For the same compound, the inhibition result in the data set on A549 [12], in the data set with A549 [14], in the data set on A549 [15] and in the data set with A549 [19] was “Active” each time. For the same compound, in the data set with A549 [9], the Activity entry is on record as “Non-Toxic”. In data set [13], the result was Active. For the same compound, the equilibrium dissociation constant (Kd) in [17] was 17 µM.

Broadly, the Kd is the equilibrium constant for the complex coming apart.
